# Experimental data from patent US20250101023A1, “HETEROARYL DERIVATIVE AND USES THEREOF” (IUCF-HYU (INDUSTRY-UNIVERSITY COOPERATION FOUNDATION …, priority 2022, published 2025).
# Legend:
# SK-Br3 xenograft = SK-Br3 xenograft model, anticancer efficacy; format: in vivo, mouse; conditions: 10 mg/kg and 20 mg/kg, i.p. twice a week
# Description: (§1) A mouse efficacy experiment was conducted after obtaining approval from the Laboratory Animal Ethics Committee of GenNBio (Review No.: GN-IACUC-Research 22-02-07). SK-Br3 and HCC-1954 cells (1×10^6 cells each) mixed with Matrigel (BD Biosciences) were […] injected into 5-week-old female Balb/c nude mice (Orient Bio, Seongnam, Republic of Korea). After tumors reached a size of about 100 mm^3, the compound, trastuzumab (20 mg/kg), and the like were intraperitoneally injected into mice (n=8 per group)(vehicle: 8% DMSO, 4% Tween-80, 88% PBS). The tumor size was measured twice weekly for about 4 weeks and calculated as follows. Volume (mm^3)=(a×b^2)/2; “a”, maximum diameter; “b”, vertical diameter
# [1] = Body weight in SK-Br3 xenograft model; format: in vivo, mouse; conditions: 10 mg/kg and 20 mg/kg, i.p. twice a week
# Description: as §1
# CDK5/P25 = CDK5/P25 (Homo sapiens (Human), UniProt Q00535); test: Kinome-wide profiling; format: biochemical; conditions: read-out: % Residual Activity (mean)
# FES/FPS = FES/FPS (Homo sapiens (Human), UniProt P07332); test: Kinome-wide profiling; format: biochemical; conditions: read-out: % Residual Activity (mean)
# CDK14/cyclin Y (PFTK1) = CDK14/cyclin Y (PFTK1) (Homo sapiens (Human), UniProt O94921); test: Kinome-wide profiling; format: biochemical; conditions: read-out: % Residual Activity (mean)
# LRRK2 = LRRK2 (Homo sapiens (Human), UniProt Q5S007); test: Kinome-wide profiling; format: biochemical; conditions: read-out: % Residual Activity (mean)
# ASK1/MAP3K5 = ASK1/MAP3K5 (Homo sapiens (Human), UniProt Q99683); test: Kinome-wide profiling; format: biochemical; conditions: read-out: % Residual Activity (mean)
# Chain of ASK1/MAP3K5 (Q99683 whole entry): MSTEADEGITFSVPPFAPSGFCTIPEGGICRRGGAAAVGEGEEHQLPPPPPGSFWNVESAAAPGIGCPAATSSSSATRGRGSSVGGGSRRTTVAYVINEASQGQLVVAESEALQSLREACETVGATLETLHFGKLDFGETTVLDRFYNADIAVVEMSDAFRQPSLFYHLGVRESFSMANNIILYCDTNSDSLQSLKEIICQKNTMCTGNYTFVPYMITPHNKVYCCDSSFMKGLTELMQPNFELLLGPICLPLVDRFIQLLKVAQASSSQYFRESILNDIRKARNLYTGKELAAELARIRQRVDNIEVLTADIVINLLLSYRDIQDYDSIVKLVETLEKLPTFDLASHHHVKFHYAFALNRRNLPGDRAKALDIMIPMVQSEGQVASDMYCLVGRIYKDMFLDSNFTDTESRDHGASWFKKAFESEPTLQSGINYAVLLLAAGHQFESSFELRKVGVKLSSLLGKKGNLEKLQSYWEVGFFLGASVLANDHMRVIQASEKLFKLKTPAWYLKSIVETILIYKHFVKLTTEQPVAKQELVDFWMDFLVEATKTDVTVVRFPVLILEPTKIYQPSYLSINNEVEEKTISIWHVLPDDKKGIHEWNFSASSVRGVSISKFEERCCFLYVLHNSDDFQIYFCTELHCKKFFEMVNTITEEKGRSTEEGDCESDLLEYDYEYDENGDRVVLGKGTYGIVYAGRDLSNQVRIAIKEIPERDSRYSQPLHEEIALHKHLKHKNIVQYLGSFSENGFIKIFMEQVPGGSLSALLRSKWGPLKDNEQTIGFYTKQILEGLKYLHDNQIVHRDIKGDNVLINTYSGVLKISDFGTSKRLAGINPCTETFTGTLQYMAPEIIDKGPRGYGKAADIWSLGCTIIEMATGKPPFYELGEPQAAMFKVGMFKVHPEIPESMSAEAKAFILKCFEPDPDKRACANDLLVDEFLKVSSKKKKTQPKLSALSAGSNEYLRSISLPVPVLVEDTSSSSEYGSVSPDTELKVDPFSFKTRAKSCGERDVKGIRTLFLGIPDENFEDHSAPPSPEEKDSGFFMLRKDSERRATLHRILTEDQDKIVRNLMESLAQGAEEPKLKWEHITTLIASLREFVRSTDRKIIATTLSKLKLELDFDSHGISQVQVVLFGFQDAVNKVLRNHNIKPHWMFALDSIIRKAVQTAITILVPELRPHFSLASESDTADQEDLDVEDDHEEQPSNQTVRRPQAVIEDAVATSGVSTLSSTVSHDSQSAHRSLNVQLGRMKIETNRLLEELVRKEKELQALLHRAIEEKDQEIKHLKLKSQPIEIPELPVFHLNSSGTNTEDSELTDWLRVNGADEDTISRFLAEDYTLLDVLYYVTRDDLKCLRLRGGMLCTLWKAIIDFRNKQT
# PAK1 = PAK1 (Homo sapiens (Human), UniProt Q13153); test: Kinome-wide profiling; format: biochemical; conditions: read-out: % Residual Activity (mean)
# MLK1/MAP3K9 = MLK1/MAP3K9 (Homo sapiens (Human), UniProt P80192); test: Kinome-wide profiling; format: biochemical; conditions: read-out: % Residual Activity (mean)
# EPHA7 = EPHA7 (Homo sapiens (Human), UniProt Q15375); test: Kinome-wide profiling; format: biochemical; conditions: read-out: % Residual Activity (mean)
# STK22D/TSSK1 = STK22D/TSSK1 (Homo sapiens (Human), UniProt Q9BXA7); test: Kinome-wide profiling; format: biochemical; conditions: read-out: % Residual Activity (mean)
# HIPK4 = HIPK4 (Homo sapiens (Human), UniProt Q8NE63); test: Kinome-wide profiling; format: biochemical; conditions: read-out: % Residual Activity (mean)
# AXL = AXL (Homo sapiens (Human), UniProt P30530); test: Kinome-wide profiling; format: biochemical; conditions: read-out: % Residual Activity (mean)
# Chain of AXL (P30530 26-894): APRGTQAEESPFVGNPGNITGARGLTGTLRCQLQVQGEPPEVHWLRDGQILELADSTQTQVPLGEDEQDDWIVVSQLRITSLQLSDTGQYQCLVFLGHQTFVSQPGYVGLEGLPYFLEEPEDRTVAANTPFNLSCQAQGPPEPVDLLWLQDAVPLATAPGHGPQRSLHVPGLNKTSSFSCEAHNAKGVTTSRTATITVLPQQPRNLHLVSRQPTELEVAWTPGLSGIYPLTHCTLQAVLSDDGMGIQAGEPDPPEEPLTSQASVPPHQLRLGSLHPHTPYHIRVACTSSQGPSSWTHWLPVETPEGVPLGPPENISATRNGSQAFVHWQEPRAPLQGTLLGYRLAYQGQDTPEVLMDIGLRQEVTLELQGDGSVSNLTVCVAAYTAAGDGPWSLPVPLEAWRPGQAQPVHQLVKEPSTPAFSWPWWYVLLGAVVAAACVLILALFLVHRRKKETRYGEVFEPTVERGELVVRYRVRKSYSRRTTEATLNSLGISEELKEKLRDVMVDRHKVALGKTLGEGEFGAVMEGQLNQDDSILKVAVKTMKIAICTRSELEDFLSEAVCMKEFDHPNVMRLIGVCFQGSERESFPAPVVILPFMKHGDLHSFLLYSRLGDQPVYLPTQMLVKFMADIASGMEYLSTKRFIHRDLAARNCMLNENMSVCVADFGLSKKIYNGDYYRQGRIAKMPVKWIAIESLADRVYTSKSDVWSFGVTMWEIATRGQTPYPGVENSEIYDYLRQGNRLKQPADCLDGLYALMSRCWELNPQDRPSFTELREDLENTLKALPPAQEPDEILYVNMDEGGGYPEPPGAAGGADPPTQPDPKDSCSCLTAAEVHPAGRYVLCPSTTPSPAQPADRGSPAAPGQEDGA
# PKCg = PKCg (Homo sapiens (Human), UniProt P05129); test: Kinome-wide profiling; format: biochemical; conditions: read-out: % Residual Activity (mean)
# CDK6/cyclin D2 = CDK6/cyclin D2 (Homo sapiens (Human), UniProt Q00534); test: Kinome-wide profiling; format: biochemical; conditions: read-out: % Residual Activity (mean)
# TBK1 = TBK1 (Homo sapiens (Human), UniProt Q9UHD2); test: Kinome-wide profiling; format: biochemical; conditions: read-out: % Residual Activity (mean)
# DCAMKL2 = DCAMKL2 (Homo sapiens (Human), UniProt Q8N568); test: Kinome-wide profiling; format: biochemical; conditions: read-out: % Residual Activity (mean)
# c-Src = c-Src (Homo sapiens (Human), UniProt P12931); test: Kinome-wide profiling; format: biochemical; conditions: read-out: % Residual Activity (mean)
# P38b/MAPK11 = P38b/MAPK11 (Homo sapiens (Human), UniProt Q15759); test: Kinome-wide profiling; format: biochemical; conditions: read-out: % Residual Activity (mean)
# BLK = BLK (Homo sapiens (Human), UniProt P51451); test: Kinome-wide profiling; format: biochemical; conditions: read-out: % Residual Activity (mean)
# Chain of BLK (P51451 whole entry): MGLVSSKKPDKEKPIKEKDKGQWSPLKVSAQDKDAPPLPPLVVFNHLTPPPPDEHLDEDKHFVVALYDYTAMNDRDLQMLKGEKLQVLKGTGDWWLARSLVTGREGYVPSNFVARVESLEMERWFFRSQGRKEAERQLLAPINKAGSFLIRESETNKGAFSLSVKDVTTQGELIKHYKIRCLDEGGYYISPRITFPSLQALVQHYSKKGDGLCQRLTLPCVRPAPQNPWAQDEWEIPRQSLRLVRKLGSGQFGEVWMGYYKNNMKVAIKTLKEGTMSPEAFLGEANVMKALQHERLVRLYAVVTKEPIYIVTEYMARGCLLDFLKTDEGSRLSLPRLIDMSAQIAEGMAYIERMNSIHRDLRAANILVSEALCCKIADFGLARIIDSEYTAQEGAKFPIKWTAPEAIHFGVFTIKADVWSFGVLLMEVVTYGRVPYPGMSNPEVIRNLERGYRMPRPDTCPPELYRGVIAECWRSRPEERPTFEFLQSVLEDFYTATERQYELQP
# TLK2 = TLK2 (Homo sapiens (Human), UniProt Q86UE8); test: Kinome-wide profiling; format: biochemical; conditions: read-out: % Residual Activity (mean)
# NIM1 = NIM1 (Homo sapiens (Human), UniProt Q8IY84); test: Kinome-wide profiling; format: biochemical; conditions: read-out: % Residual Activity (mean)
# ITK = ITK (Homo sapiens (Human), UniProt Q08881); test: Kinome-wide profiling; format: biochemical; conditions: read-out: % Residual Activity (mean)
# MEK5 = MEK5 (Homo sapiens (Human), UniProt Q13163); test: Kinome-wide profiling; format: biochemical; conditions: read-out: % Residual Activity (mean)
# Chain of MEK5 (Q13163 whole entry): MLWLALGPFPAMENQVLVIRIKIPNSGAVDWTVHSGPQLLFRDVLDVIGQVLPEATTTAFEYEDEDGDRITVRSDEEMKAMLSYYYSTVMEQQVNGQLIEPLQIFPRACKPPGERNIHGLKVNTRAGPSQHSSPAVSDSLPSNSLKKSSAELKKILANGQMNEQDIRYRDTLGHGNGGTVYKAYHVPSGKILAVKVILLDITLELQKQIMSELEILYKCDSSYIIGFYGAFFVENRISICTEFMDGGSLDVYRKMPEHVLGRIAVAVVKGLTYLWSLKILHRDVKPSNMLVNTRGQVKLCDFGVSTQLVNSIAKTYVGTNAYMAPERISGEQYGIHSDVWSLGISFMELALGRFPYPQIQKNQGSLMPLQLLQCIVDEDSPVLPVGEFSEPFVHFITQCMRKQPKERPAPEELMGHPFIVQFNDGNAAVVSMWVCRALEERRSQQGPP
# CK2a = CK2a (Homo sapiens (Human), UniProt P68400); test: Kinome-wide profiling; format: biochemical; conditions: read-out: % Residual Activity (mean)
# ULK2 = ULK2 (Homo sapiens (Human), UniProt Q8IYT8); test: Kinome-wide profiling; format: biochemical; conditions: read-out: % Residual Activity (mean)
# KDR/VEGFR2 = KDR/VEGFR2 (Homo sapiens (Human), UniProt P35968); test: Kinome-wide profiling; format: biochemical; conditions: read-out: % Residual Activity (mean)
# p70S6K/RPS6KB1 = p70S6K/RPS6KB1 (Homo sapiens (Human), UniProt P23443); test: Kinome-wide profiling; format: biochemical; conditions: read-out: % Residual Activity (mean)
# BRSK1 = BRSK1 (Homo sapiens (Human), UniProt Q8TDC3); test: Kinome-wide profiling; format: biochemical; conditions: read-out: % Residual Activity (mean)
# IRAK4 = IRAK4 (Homo sapiens (Human), UniProt Q9NWZ3); test: Kinome-wide profiling; format: biochemical; conditions: read-out: % Residual Activity (mean)
# Chain of IRAK4 (Q9NWZ3 whole entry): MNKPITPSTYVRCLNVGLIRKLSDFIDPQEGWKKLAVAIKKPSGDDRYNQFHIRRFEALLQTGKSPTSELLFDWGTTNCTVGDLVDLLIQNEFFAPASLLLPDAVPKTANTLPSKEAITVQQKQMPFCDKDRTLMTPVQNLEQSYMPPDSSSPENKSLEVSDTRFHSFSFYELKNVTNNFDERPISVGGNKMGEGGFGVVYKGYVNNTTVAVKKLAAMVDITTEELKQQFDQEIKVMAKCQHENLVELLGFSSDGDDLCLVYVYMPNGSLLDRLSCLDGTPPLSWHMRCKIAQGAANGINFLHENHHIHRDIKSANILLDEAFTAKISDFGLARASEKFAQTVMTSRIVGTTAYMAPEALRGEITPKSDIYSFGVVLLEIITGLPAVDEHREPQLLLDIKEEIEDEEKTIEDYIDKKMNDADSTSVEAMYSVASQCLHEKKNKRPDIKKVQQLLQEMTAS
# c-MET = c-MET (Homo sapiens (Human), UniProt P08581); test: Kinome-wide profiling; format: biochemical; conditions: read-out: % Residual Activity (mean)
# Chain of c-MET (P08581 25-1390): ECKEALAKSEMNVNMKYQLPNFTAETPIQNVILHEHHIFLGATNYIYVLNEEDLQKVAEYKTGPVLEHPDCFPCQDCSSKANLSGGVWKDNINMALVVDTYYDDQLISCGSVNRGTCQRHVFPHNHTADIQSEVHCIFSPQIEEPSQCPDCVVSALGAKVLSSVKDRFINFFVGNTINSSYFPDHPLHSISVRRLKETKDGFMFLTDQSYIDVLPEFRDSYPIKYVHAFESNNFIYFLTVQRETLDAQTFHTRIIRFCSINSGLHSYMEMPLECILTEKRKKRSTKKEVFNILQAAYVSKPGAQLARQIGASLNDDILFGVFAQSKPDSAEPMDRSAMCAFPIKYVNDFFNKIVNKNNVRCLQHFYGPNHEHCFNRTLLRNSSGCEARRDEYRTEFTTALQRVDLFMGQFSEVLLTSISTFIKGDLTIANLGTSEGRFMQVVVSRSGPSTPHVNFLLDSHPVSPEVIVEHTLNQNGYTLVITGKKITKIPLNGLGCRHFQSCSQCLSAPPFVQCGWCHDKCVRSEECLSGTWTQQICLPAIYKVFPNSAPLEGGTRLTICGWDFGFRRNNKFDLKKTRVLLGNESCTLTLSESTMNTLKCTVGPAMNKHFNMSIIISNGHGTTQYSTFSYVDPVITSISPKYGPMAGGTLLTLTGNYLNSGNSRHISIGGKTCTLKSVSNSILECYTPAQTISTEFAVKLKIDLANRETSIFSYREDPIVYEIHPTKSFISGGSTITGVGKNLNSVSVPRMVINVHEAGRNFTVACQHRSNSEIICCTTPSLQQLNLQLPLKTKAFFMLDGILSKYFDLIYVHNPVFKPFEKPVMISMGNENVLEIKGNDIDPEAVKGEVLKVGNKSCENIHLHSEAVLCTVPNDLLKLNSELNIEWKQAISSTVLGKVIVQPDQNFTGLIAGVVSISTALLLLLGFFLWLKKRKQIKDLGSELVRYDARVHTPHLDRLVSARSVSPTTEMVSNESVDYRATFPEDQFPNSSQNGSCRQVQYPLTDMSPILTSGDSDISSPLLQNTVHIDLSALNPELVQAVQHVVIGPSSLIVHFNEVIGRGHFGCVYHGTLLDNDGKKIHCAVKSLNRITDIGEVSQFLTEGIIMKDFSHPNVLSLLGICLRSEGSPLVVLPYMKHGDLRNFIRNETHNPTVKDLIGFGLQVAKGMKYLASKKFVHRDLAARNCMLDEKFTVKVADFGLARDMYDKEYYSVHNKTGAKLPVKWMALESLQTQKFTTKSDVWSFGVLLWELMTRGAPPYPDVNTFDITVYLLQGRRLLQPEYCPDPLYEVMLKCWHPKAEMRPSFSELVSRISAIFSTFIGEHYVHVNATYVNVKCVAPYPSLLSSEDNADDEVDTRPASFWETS
# MRCKa/CDC42BPA = MRCKa/CDC42BPA (Homo sapiens (Human), UniProt Q5VT25); test: Kinome-wide profiling; format: biochemical; conditions: read-out: % Residual Activity (mean)
# STK21/CIT = STK21/CIT (Homo sapiens (Human), UniProt O14578); test: Kinome-wide profiling; format: biochemical; conditions: read-out: % Residual Activity (mean)
# TAK1 = TAK1 (Homo sapiens (Human), UniProt O43318); test: Kinome-wide profiling; format: biochemical; conditions: read-out: % Residual Activity (mean)
# JAK3 = JAK3 (Homo sapiens (Human), UniProt P52333); test: Kinome-wide profiling; format: biochemical; conditions: read-out: % Residual Activity (mean)
smiles,measurement,setting,value
"CCn1cnc2c(NCc3ccc(-c4ccccn4)nc3)nc(-c3ccc(N)nc3)nc21 [Example 53, N-([2,2′-bipyridin]-5-ylmethyl)-2-(6-aminopyridin-3-yl)-9-ethyl-9H-purin-6-amine]",anticancer efficacy,SK-Br3 xenograft,anticancer efficacy in a dose-dependent manner
same,mouse body weight,[1],without any change in mouse weight
same,remaining activity at 10 µM,CDK5/P25,1.6%
same,remaining activity at 10 µM,FES/FPS,6.37%
same,remaining activity at 10 µM,CDK14/cyclin Y (PFTK1),14%
same,remaining activity at 10 µM,LRRK2,17.8%
same,remaining activity at 10 µM,ASK1/MAP3K5,18.4%
same,remaining activity at 10 µM,PAK1,24.5%
same,remaining activity at 10 µM,MLK1/MAP3K9,27.9%
same,remaining activity at 10 µM,EPHA7,31.3%
same,remaining activity at 10 µM,STK22D/TSSK1,38%
same,remaining activity at 10 µM,HIPK4,43.9%
same,remaining activity at 10 µM,AXL,44.2%
same,remaining activity at 10 µM,PKCg,49.5%
same,remaining activity at 10 µM,CDK6/cyclin D2,51.5%
same,remaining activity at 10 µM,TBK1,55%
same,remaining activity at 10 µM,DCAMKL2,55%
same,remaining activity at 10 µM,c-Src,60.1%
same,remaining activity at 10 µM,P38b/MAPK11,64.7%
same,remaining activity at 10 µM,BLK,66.8%
same,remaining activity at 10 µM,TLK2,72.2%
same,remaining activity at 10 µM,NIM1,76%
same,remaining activity at 10 µM,ITK,81.7%
same,remaining activity at 10 µM,MEK5,84.1%
same,remaining activity at 10 µM,CK2a,84.2%
same,remaining activity at 10 µM,ULK2,87.3%
same,remaining activity at 10 µM,KDR/VEGFR2,88.6%
same,remaining activity at 10 µM,p70S6K/RPS6KB1,92.1%
same,remaining activity at 10 µM,BRSK1,92.8%
same,remaining activity at 10 µM,IRAK4,94.8%
same,remaining activity at 10 µM,c-MET,96.4%
same,remaining activity at 10 µM,MRCKa/CDC42BPA,96.6%
same,remaining activity at 10 µM,STK21/CIT,97.9%
same,remaining activity at 10 µM,TAK1,98.2%
same,remaining activity at 10 µM,JAK3,99.7%
